Data published in patent US12077503B2, “Substituted cyclic amides and their use as herbicides” (FMC CORPORATION, priority 2015, dated 2024).

Key:
Assay type in all cases: in vivo
corn (Zea mays) = assay: Test A postemergence; conditions: Zea mays, post-emergence, 240 h, Postemergence, read-out: Corn plant response rating (0 to 100 scale)
Method in brief: (§1)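 Visual injury, scored on a 0–100 scale relative to untreated controls, was recorded about 10 d after application. Treatments were a preemergence soil spray over planted seeds or a postemergence spray on plants at the one- to two-leaf stage, 2 to 10 cm tall, all in loam soil–sand blend in the greenhouse.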

[1] = system: giant foxtail (Setaria faberii); assay: Test A postemergence; conditions: Setaria faberi, post-emergence, 240 h, Postemergence, read-out: Foxtail, Giant plant response rating (0 to 100 scale)
Method in brief: as §1

[2] = system: blackgrass (Alopecurus myosuroides); assay: Test A postemergence; conditions: Alopecurus myosuroides, post-emergence, 240 h, Postemergence, read-out: Blackgrass plant response rating (0 to 100 scale)
Method in brief: as §1

[3] = system: barnyardgrass (Echinochloa crus-galli); assay: Test A postemergence; conditions: Echinochloa crus-galli, post-emergence, 240 h, Postemergence
Method in brief: as §1

Kochia (Kochia scoparia) [4] = assay: Test A postemergence; conditions: Bassia scoparia, post-emergence, 240 h, Postemergence, read-out: Kochia plant response rating (0 to 100 scale)
Method in brief: as §1

[5] = system: wheat (Triticum aestivum); assay: Test A postemergence; conditions: Triticum aestivum, post-emergence, 240 h, Postemergence, read-out: Wheat plant response rating (0 to 100 scale)
Method in brief: as §1

[6] = system: pigweed (Amaranthus retroflexus); assay: Test A postemergence; conditions: Amaranthus retroflexus, post-emergence, 240 h, Postemergence, read-out: Pigweed plant response rating (0 to 100 scale)
Method in brief: as §1

[7] = system: Galium (catchweed bedstraw, Galium aparine); assay: Test A postemergence; conditions: Galium, post-emergence, 240 h, Postemergence, read-out: Galium plant response rating (0 to 100 scale)
Method in brief: as §1

[8] = system: ragweed (common ragweed, Ambrosia elatior); assay: Test A postemergence; conditions: Ambrosia artemisiifolia, post-emergence, 240 h, Postemergence, read-out: Ragweed plant response rating (0 to 100 scale)
Method in brief: as §1

[9] = system: ryegrass, Italian (Italian ryegrass, Lolium multiflorum); assay: Test A postemergence; conditions: Lolium multiflorum, post-emergence, 240 h, Postemergence, read-out: Ryegrass, Italian plant response rating (0 to 100 scale)
Method in brief: as §1

[10] = system: giant foxtail (Setaria faberii); assay: Test A preemergence; conditions: Setaria faberi, pre-emergence, 240 h, Preemergence
Method in brief: as §1

[11] = system: barnyardgrass (Echinochloa crus-galli); assay: Test A preemergence; conditions: Echinochloa crus-galli, pre-emergence, 240 h, Preemergence
Method in brief: as §1

Kochia (Kochia scoparia) [12] = assay: Test A preemergence; conditions: Bassia scoparia, pre-emergence, 240 h, Preemergence
Method in brief: as §1

[13] = system: pigweed (Amaranthus retroflexus); assay: Test A preemergence; conditions: Amaranthus retroflexus, pre-emergence, 240 h, Preemergence
[14] = system: ragweed (common ragweed, Ambrosia elatior); assay: Test A preemergence; conditions: Ambrosia artemisiifolia, pre-emergence, 240 h, Preemergence
Method in brief: as §1

[15] = system: ryegrass, Italian (Italian ryegrass, Lolium multiflorum); assay: Test A preemergence; conditions: Lolium multiflorum, pre-emergence, 240 h, Preemergence
Method in brief: as §1

rice (Oryra sativa) = assay: Test B flooded paddy test; conditions: Oryza sativa, 360 h, Flood, 250 g ai/ha; visually evaluated after 13 to 15 d; read-out: Plant response rating, Rice (0 to 100 scale where 0 is no effect and 100 is complete control)
Method in brief: (§2)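 Compound goes directly into floodwater once pots are flooded 3 cm above soil, targeting plants at two leaves; the water depth is then held for the test duration. Plants sit 13–15 d in a greenhouse and are rated visually, 100 denoting complete control.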

[16] = system: barnyardgrass (Echinochloa crus-galli); assay: Test B flooded paddy test; conditions: Echinochloa crus-galli, 360 h, Flood, 250 g ai/ha; visually evaluated after 13 to 15 d; read-out: Plant response rating, Barnyardgrass (0 to 100 scale where 0 is no effect and 100 is complete control)
Method in brief: as §2

[17] = system: ducksalad (Heteranthera limosa); assay: Test B flooded paddy test; conditions: Heteranthera limosa, 360 h, Flood, 250 g ai/ha; visually evaluated after 13 to 15 d; read-out: Plant response rating, Ducksalad (0 to 100 scale where 0 is no effect and 100 is complete control)
Method in brief: as §2

[18] = system: sedge, umbrella (small-flower umbrella sedge, Cyperus difformis); assay: Test B flooded paddy test; conditions: Cyperus difformis, 360 h, Flood, 250 g ai/ha; visually evaluated after 13 to 15 d; read-out: Plant response rating, Sedge, Umbrella (0 to 100 scale where 0 is no effect and 100 is complete control)
Method in brief: as §2

[19] = 125 g ai/ha, visual rating about 10 d after treatment
[20] = 31 g ai/ha, 0 is no effect, 100 is complete control

CC(C)Oc1ccc([C@H]2CN(C)C(=O)[C@@H]2C(=O)Nc2ccccc2F)cc1F [Compound 1333]
plant injury at 125 g/ha (corn (Zea mays); [19]): 0%
plant injury at 31 g/ha (corn (Zea mays); [20]): 0%
pest or weed control at 125 g/ha [1, 19]: 60%
pest or weed control at 31 g/ha [1, 20]: 0%
pest or weed control at 125 g/ha [2, 19]: 0%
pest or weed control at 31 g/ha [2, 20]: 0%
pest or weed control at 125 g/ha ([3]; 125 g ai/ha, visual rating about 10 d after treatment, read-out: Barnyardgrass plant response rating (0 to 100 scale, 0 no effect, 100 complete control)): 70%
pest or weed control at 31 g/ha ([3]; 31 g ai/ha, 0 is no effect, 100 is complete control, read-out: Barnyardgrass plant response rating (0 to 100 scale)): 0%
pest or weed control at 125 g/ha (Kochia (Kochia scoparia) [4]; [19]): 0%
pest or weed control at 31 g/ha (Kochia (Kochia scoparia) [4]; [20]): 0%
plant injury at 125 g/ha [5, 19]: 0%
plant injury at 31 g/ha [5, 20]: 0%
pest or weed control at 125 g/ha [6, 19]: 10%
pest or weed control at 31 g/ha [6, 20]: 0%
pest or weed control at 125 g/ha [7, 19]: 0%
pest or weed control at 31 g/ha [7, 20]: 0%
pest or weed control at 125 g/ha [8, 19]: 0%
pest or weed control at 31 g/ha [8, 20]: 0%
pest or weed control at 125 g/ha [9, 19]: 0%
pest or weed control at 31 g/ha [9, 20]: 0%
pest or weed control at 31 g/ha ([10]; 31 g ai/ha, 0 to 100 scale where 0 is no effect and 100 is complete control, read-out: Foxtail, Giant plant response rating): 90%
pest or weed control at 125 g/ha ([10]; 125 g ai/ha, 0 to 100 scale (0 no effect, 100 complete control), read-out: Plant response rating, Foxtail, Giant): 90%
pest or weed control at 31 g/ha ([11]; 31 g ai/ha, 0 to 100 scale where 0 is no effect and 100 is complete control, read-out: Barnyardgrass plant response rating): 40%
pest or weed control at 125 g/ha ([11]; 125 g ai/ha, 0 to 100 scale (0 no effect, 100 complete control), read-out: Plant response rating, Barnyardgrass): 70%
pest or weed control at 31 g/ha (Kochia (Kochia scoparia) [12]; 31 g ai/ha, 0 to 100 scale where 0 is no effect and 100 is complete control, read-out: Kochia plant response rating): 0%
pest or weed control at 125 g/ha (Kochia (Kochia scoparia) [12]; 125 g ai/ha, 0 to 100 scale (0 no effect, 100 complete control), read-out: Plant response rating, Kochia): 30%
pest or weed control at 31 g/ha ([13]; 31 g ai/ha, 0 to 100 scale where 0 is no effect and 100 is complete control, read-out: Pigweed plant response rating): 0%
pest or weed control at 125 g/ha ([13]; 125 g ai/ha, 0 to 100 scale (0 no effect, 100 complete control), read-out: Plant response rating, Pigweed): 0%
pest or weed control at 31 g/ha ([14]; 31 g ai/ha, 0 to 100 scale where 0 is no effect and 100 is complete control, read-out: Ragweed plant response rating): 0%
pest or weed control at 125 g/ha ([14]; 125 g ai/ha, 0 to 100 scale (0 no effect, 100 complete control), read-out: Plant response rating, Ragweed): 0%
pest or weed control at 31 g/ha ([15]; 31 g ai/ha, 0 to 100 scale where 0 is no effect and 100 is complete control, read-out: Ryegrass, Italian plant response rating): 0%
pest or weed control at 125 g/ha ([15]; 125 g ai/ha, 0 to 100 scale (0 no effect, 100 complete control), read-out: Plant response rating, Ryegrass, Italian): 0%
pest or weed control at 250 g/ha (rice (Oryra sativa)): 20%
pest or weed control at 250 g/ha [16]: 45%
pest or weed control at 250 g/ha [17]: 80%
pest or weed control at 250 g/ha [18]: 70%
